Assay results published in patent publication US20250295652A1, “Inhibitors of Molluscum Contagiosum Infection and Methods Using the Same” (priority 2021, published 2025).
Read-outs that look alike come from different tables or passages of the source.

What was measured:
D4 [1] = biological target: T1, D4 (Vaccinia virus, UniProt P04303, Y163F); assay type: binding; design: made in house; host or cells: bacterial cells (IPTG induction); purified for SPR, crude lysate for DARTS
D4 [2] = biological target: T1, D4; assay type: binding; design: made in house; host or cells: bacterial cells (IPTG induction); purified for SPR, crude lysate for DARTS; remark: listed apart in the source
D4 [3] = biological target: T1, D4; assay type: binding; details: for thermal shift (in words): up to 50 μM
[4] = biological target: E9/A20/D4 proteins (molluscum mD4) (Molluscum contagiosum virus, UniProt Q98260); assay: biochemical
mD4-VV surrogate virus = assay: microbe, parasite or virus in culture; assay type: cell-based, mD4/vaccinia hybrid virus; details: Hybrid virus, BSC-1, read-out: mD4 EC50
VV = assay: microbe, parasite or virus in culture; assay type: cell-based, vaccinia virus; details: Orthopoxvirus vaccinia, BSC-1, read-out: VV EC50
[5] = Solubility in receptor medium; details: 1×PBS/4% BSA receptor medium, typical IVPT study
From the text: For this study, human torso skin was used rather than a membrane. Initially, methods development was done to identify the receiving medium in the reservoir of the Franz cell apparatus which provided the greatest compound solubility so that percentages of full penetration would not be underestimated due to poor solubility.

Chain of E9/A20/D4 proteins (molluscum mD4) (Q98260 1-226): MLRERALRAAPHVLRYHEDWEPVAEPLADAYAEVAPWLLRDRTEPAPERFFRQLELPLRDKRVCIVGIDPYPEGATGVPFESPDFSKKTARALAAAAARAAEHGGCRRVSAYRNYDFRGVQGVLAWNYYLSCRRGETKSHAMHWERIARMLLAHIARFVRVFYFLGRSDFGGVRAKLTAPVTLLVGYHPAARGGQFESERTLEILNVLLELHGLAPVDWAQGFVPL

Structure (SMILES)	IC50 [4]	EC50 (mD4-VV surrogate virus)	also measured
O=C(NN1C(=O)[C@@H]2[C@@H]3C=C[C@@H]([C@H]4C[C@@H]34)[C@@H]2C1=O)c1ccc(C(F)(F)F)cc1 [ST-246]	–	–	SPR binding to D4 (in words) (D4 [1]): near-baseline signals; effect on D4 protein levels after Pronase proteolysis (in words) (D4 [2]): did not affect the protein levels of D4; ΔTm (D4 [3]; […] µM): −0.37 ± 0.08; ° C.; ΔTm (D4 [3]; 50 µM): −0.26 ± 0.10 °C; thermal shift (in words) (D4 [3]): no thermal shifts
O=C(NCc1ccc(Cl)cc1)c1nnsc1NC(=O)C1CCN(c2ccccn2)CC1 [Compound 167, N-(4-(4-Chlorobenzylcarbamoyl)-1,2,3-thiadiazol-5-yl)-1-(pyridin-2-yl)piperidine-4-carboxamide]	98.6 µM	17.8 µM	–
O=C(NCc1ccc(F)c(F)c1)c1ccsc1NC(=O)N1CCN(c2ccccn2)CC1 [Compound 159, N-(3-(3,4-Difluorobenzylcarbamoyl)thiophen-2-yl)-4-(pyridin-2-yl)piperazine-1-carboxamide]	118 µM	12.8 µM	–
CCC(C(=O)Nc1sccc1C(=O)NCc1ccccc1)c1ccccc1 (stereo not drawn) [Compound 161, 2-(2-Phenylbutanamido)-N-benzylthiophene-3-carboxamide]	140 µM	12 µM	–
O=C(NCCN1CCOCC1)Nc1snnc1C(=O)NCc1ccc(Cl)cc1 [Compound 183, 1-(4-(4-Chlorobenzylcarbamoyl)-1,2,3-thiadiazol-5-yl)-3-(2-morpholinoethyl)urea]	> 100 µM	11.9 µM	–
CCC(C(=O)Nc1sccc1C(=O)NCc1ccc(F)cc1)c1ccccc1 (stereo not drawn) [Compound 179, 2-(2-Phenylbutanamido)-N-(4-fluorobenzyl)thiophene-3-carboxamide]	51.3 µM	9.5 µM	–
COc1ccccc1CN(C)C(=O)c1ccsc1NC(=O)N1CCN(c2ccccn2)CC1 [Compound 172, N-(3-(N-(2-Methoxybenzyl)-N-methylcarbamoyl)thiophen-2-yl)-4-(pyridin-2-yl)piperazine-1-carboxamide]	117 µM	22.6 µM	–
O=C(NCCc1ccccn1)Nc1snnc1C(=O)NCc1ccc(F)cc1 [Compound 184, 1-(4-(4-Fluorobenzylcarbamoyl)-1,2,3-thiadiazol-5-yl)-3-(2-(pyridin-2-yl)ethyl)urea]	60 µM	22.8 µM	–
O=C(NCc1ccc(Cl)nc1)c1ccsc1NC(=O)N1CCN(c2ccccn2)CC1 [Compound 170, N-(3-((6-Chloropyridin-3-yl)methylcarbamoyl)thiophen-2-yl)-4-(pyridin-2-yl)piperazine-1-carboxamide]	> 200 µM	14.9 µM	–
O=C(NCc1ccc(Cl)cc1)c1nnsc1NC(=O)N1CCN(c2ccccc2)CC1 [Compound 84, N-(4-chlorobenzyl)-5-(4-phenylpiperazine-1-carboxamido)-1,2,3-thiadiazole-4-carboxamide]	–	10 µM	EC50 (VV): 9.4 µM
CCC(C(=O)Nc1snnc1-c1ccc(C(F)(F)F)cc1)c1ccccc1 (stereo not drawn) [Compound 109, 2-Phenyl-N-[4-(4-trifluoromethyl-phenyl)-[1,2,3]thiadiazol-5-yl]-butyramide]	68.6 µM	0.8 µM	–
O=C(NCc1ccc(F)cc1)c1nnsc1NC(=O)N1CCN(c2ccccn2)CC1 [Compound 180, N-(4-(4-Fluorobenzylcarbamoyl)-1,2,3-thiadiazol-5-yl)-4-(pyridin-2-yl)piperazine-1-carboxamide]	39 µM	12.9 µM	–
CN(Cc1ccccc1)C(=O)c1ccsc1NC(=O)N1CCN(c2ccccn2)CC1 [Compound 173, N-(3-(N-Benzyl-N-methylcarbamoyl)thiophen-2-yl)-4-(pyridin-2-yl)piperazine-1-carboxamide]	> 200 µM	11.9 µM	–
Nc1ccn(C[C@@H](CO)OCP(=O)(O)O)c(=O)n1 [CDV, 1-((3-hydroxy-2-phosphonylmethoxy)propyl)cytosine]	–	–	SPR binding to D4 (in words) (D4 [1]): near-baseline signals; effect on D4 protein levels after Pronase proteolysis (in words) (D4 [2]): did not affect the protein levels of D4; ΔTm (D4 [3]; […] µM): −0.37 ± 0.14; ° C.; ΔTm (D4 [3]; 50 µM): −0.27 ± 0.37 °C; thermal shift (in words) (D4 [3]): no thermal shifts
O=C(NCc1ccc(F)cc1)c1ccsc1NC(=O)N1CCN(c2ccccn2)CC1 [Compound 181, N-(3-(4-Fluorobenzylcarbamoyl)thiophen-2-yl)-4-(pyridin-2-yl)piperazine-1-carboxamide]	135 µM	16 µM	–
O=C(NCc1ccccc1)c1nnsc1NC(=O)N1CCN(c2ccccn2)CC1 [Compound 119, 4-Pyridin-2-yl-piperazine-1-carboxylic acid (4-benzylcarbamoyl-[1,2,3]thiadiazol-5-yl)-amide]	> 100 µM	10.3 µM	–
CCC(C(=O)Nc1sccc1C(=O)NCc1ccc(Cl)cc1)c1ccccc1 (stereo not drawn) [Compound 110, 2-(2-Phenylbutanamido)-N-(4-chlorobenzyl)thiophene-3-carboxamide]	> 100 µM	8 µM	–
CCC(C(=O)Nc1scnc1C(=O)NCc1ccc(Cl)cc1)c1ccccc1 (stereo not drawn) [Compound 163, 5-(2-Phenylbutanamido)-N-(4-chlorobenzyl)thiazole-4-carboxamide]	> 100 µM	12.1 µM	–
CCC(C(=O)Nc1sc(C(N)=O)c(C)c1C(=O)OC)c1ccccc1 (single isomer, unassigned) [Compound 29, Methyl 2-(2-phenylbutanamido)-5-carbamoyl-4-methylthiophene-3-carboxylate]	13.4 µM	19.7 µM	EC50 (VV): 28 µM
CCC(C(=O)Nc1sccc1C(=O)NCc1ccc(F)c(F)c1)c1ccccc1 (stereo not drawn) [Compound 160, 2-(2-Phenylbutanamido)-N-(3,4-difluorobenzyl)thiophene-3-carboxamide]	128 µM	10.6 µM	–
O=C(NCc1ccc(Cl)cc1)c1nnsc1NC(=O)N1CCN(c2ccccn2)CC1 [Compound 83, N-(4-chlorobenzyl)-5-(4-(pyridin-2-yl)piperazine-1-carboxamido)-1,2,3-thiadiazole-4-carboxamide]	31.4 µM	7.7 µM	EC50 (VV): 7.3 µM
O=C(NCc1ccc(Cl)cc1)c1ccsc1NC(=O)N1CCN(c2ccccn2)CC1 [Compound 111, 4-Pyridin-2-yl-piperazine-1-carboxylic acid [3-(4-chloro-benzyl carbamoyl)-thiophen-2-yl]-amide]	63.3 µM	7 µM	solubility sufficient to detect % of the applied amount [5]: ≤ 90%
O=C(NCCc1ccccn1)Nc1snnc1C(=O)NCc1ccc(Cl)cc1 [Compound 185, 1-(4-(4-Chlorobenzylcarbamoyl)-1,2,3-thiadiazol-5-yl)-3-(2-(pyridin-2-yl)ethyl)urea]	64.7 µM	9.6 µM	–
O=C(NCCN1CCOCC1)Nc1snnc1C(=O)NCc1ccc(F)cc1 [Compound 182, 1-(4-(4-Fluorobenzylcarbamoyl)-1,2,3-thiadiazol-5-yl)-3-(2-morpholinoethyl)urea]	> 100 µM	12.4 µM	–
CCC(C(=O)Nc1snc(C)c1C#N)c1ccccc1 (stereo not drawn) [Compound 68, N-(4-Cyano-3-methyl-isothiazol-5-yl)-2-phenyl-butyramide]	–	–	EC50 (VV): 8.6 µM
O=C(NCc1ccc(Cl)cc1)c1nnsc1NC(=O)N1CCN(c2ccccc2F)CC1 [Compound 168, 4-(2-Fluoro-phenyl)-piperazine-1-carboxylic acid [4-(4-chloro-benzylcarbamoyl)-[1,2,3]thiadiazol-5-yl]-amide]	26.3 µM	11.9 µM	–
CCOC(=O)c1c(NC(=O)C(CC)c2ccccc2)sc(C(=O)N(C)C)c1C (stereo not drawn) [Compound 5, ethyl 5-(dimethylcarbamoyl)-4-methyl-2-(2-phenylbutanamido)thiophene-3-carboxylate]	–	–	EC50 (VV): 29.7 µM
CCOC(=O)c1c(NC(=O)C2CCCCC2)sc(C(N)=O)c1C [Compound 4, ethyl 5-carbamoyl-2-(cyclohexanecarboxamido)-4-methylthiophene-3-carboxylate]	–	–	EC50 (VV): 48.9 µM
CCC(C(=O)Nc1cc(C)cs1)c1ccccc1 (stereo not drawn) [Compound 34, N-(4-methyl-thiophen-2-yl)-2-phenyl-butyramide]	–	–	EC50 (VV): 46.7 µM
